We go through 1 molecule from patent US20230147942A1, “PHARMACEUTICAL COMPOSITION COMPRISING NEW LACTOBACILLUS PLANTARUM KC3 STRAIN AND LEONURUS JAPONICUS EXTRACT AS ACTIVE INGREDIENTS FOR PREVENTING OR TREATING RESPIRATORY DISEASE AND USE THEREOF” (KT&G CORPORATION, priority 2020, published 2023).

One test deals with CXCL-1. Put plainly: Expression level of inflammation factor in BAL fluid (ELISA). The test is classed as in vivo, mouse. On the procedure: (§1) BALB/c male mice (7-week-old, 20 g to 25 g, Orient Bio) were divided into groups of 6 mice, and as assigned to 6 mice in each group, and Alum was diluted in components of air pollutants, i.e., 10 mg/ml of coal combustible materials, 10 mg/ml of fly ash, and 5 mg/ml of diesel exhaust particle (DEP) to have a final concentration of 1% so that a final concentration of each component was 1.5 mg/ml for coal combustible material/fly ash and 5 mg/ml for DEP in a mixture. Then, to all groups except for a normal group, the mixture was directly injected into the airway and nose of the experimental animals by 50 pl each on the 4th, 7th and 10th says of the experiment.
(§2) For a positive control group treated with dexamethasone (Sigma D2915), administed at 3 mg/kg BW of the mouse model, the Lactobacillus plantarum KC3 strain (KC3) was diluted at a concentration of 1×10^9CFU/cell (about 2 mg/kg BW), the Leonurus japonicus extract was diluted in distilled water at a dose of 100 mg/kg of BW, and then orally administered at a dose of 300 pl every day (for 11 days). For a mixed group including the KC3 strain and the Leonurus japonicus extract, the solution was mixed and diluted at a ratio of 1:1 by the dry weight as in Examples above, and then orally administered at a dose of 300 pl every day (for 11 days) (the cell amount in the KC3 included in the mixture was 0.5×10^9 CFU/cell, and the dose of the Leonurus japonicus extract was set at 50 mg/kg BW). The oral administration was performed at a dose of 300 μl per mouse, and an autopsy was performed on the 12th day after the start of the experiment to recover the BAL solution.
(§3) An experiment was carried out to confirm whether the expression level of inflammation factors in the BAL fluid can be lowered, when treated with the Lactobacillus plantarum KC3 strain, the Leonurus japonicus extract, or the mixture thereof.
(§4) The experiment was carried out in the same manner as in Experimental Example 1-3, except that the number of cells in BAL fluid was measured. Instead of measuring the number of cells, ELISA was performed to measure the expression level of respiratory inflammation factors, such as IL-17A, TNF-α, and CXCL-1, expressed in BAL fluid. In detail, IL-17A antibodies (M1700, R&D Systems, Minneapolis, USA), TNF-α antibodies (MTA00B, R&D Systems, Minneapolis, USA), and CXCL-1 antibodies (MKCOOB, R&D Systems, Minneapolis, USA) were diluted with a buffer solution, coated microwells, and then cultured at 4° C. for 16 hours. Each well was washed with a buffer solution three times, and 10-fold diluted serum was dispensed at 100 μl per well. After being left at room temperature for 1 hour, the wells were washed twice. Then, 100 μl of Avidin-HRP-conjugated antibodies (DY007, R&D Systems, Minneapolis, USA) was treated thereon, and the wells were left again at room temperature for 1 hour, followed by washing again.
(§5) Tetramethylbenzidine (TMB) base solution (DY007, R&D Systems, Minneapolis, USA) was dispensed at 100 μl per well, and the well plate was left in the dark for 30 minutes. After 50 μl of a stopping solution (DY007, R&D Systems, Minneapolis, USA) was treated thereon, absorbance of the cells was measured at 450 nm.
For orientation: An ELISA detects its analyte on a solid surface through an enzyme-linked reagent.

For the next test, the system named is IL-17A. The test is described as above. The test is classed as in vivo, mouse. The procedure: as §1, §2, §3, §4, §5
A further test has as its system TNF-α. Described as above. It counts as in vivo, mouse. On the procedure:
as §1, §2, §3, §4, §5

The subject of another test is neutrophils. The test is described as follows: Ratio of number of neutrophils to total number of cells in BAL fluid (Diff-Qick staining). It counts as in vivo, mouse. On the procedure:
as §1
(§6) For a positive control group treated with dexamethasone (Sigma D2915), administed at 3 mg/kg BW of the mouse model, the Lactobacillus plantarum KC3 strain (KC3) was diluted at a concentration of 1×10^9CFU/cell (about 2 mg/kg BW), the Leonurus japonicus extract was diluted in distilled water at a dose of 100 mg/kg of BW, and then orally administered at a dose of 300 pl every day (for 11 days). […]

Test [1] has as its system total number of cells in BAL fluid. The test is described as follows: Total number of cells in BAL fluid, mouse model having respiratory damage caused by air pollutants. The test is classed as in vivo. On the procedure: as §1, §6
In test [2] the test system is symmetric dimethylarginine (SDMA). Put plainly: Measurement of SDMA as COPD biomarker in blood (ELISA). It counts as in vivo, mouse. The procedure:
as §1, §6
After being left at room temperature for 1 hour, the wells were washed twice. […] After 50 μl of a stopping solution (DY007, R&D Systems, Minneapolis, USA) was treated thereon, absorbance of the cells was measured at 450 nm. […]

The mark [3] stands for this setting: BALB/c mice, air pollutant-induced, oral daily 11 days, dexamethasone 3 mg/kg, KC3 1×10^9 CFU, Leo 100 mg/kg, mixture 0.5×10^9 CFU + 50 mg/kg.
Setting [4] is: BALB/c mice, air pollutant-induced, oral daily 11 days, BAL day 12, dexamethasone 3 mg/kg, KC3 1×10^9 CFU, Leo 100 mg/kg, mixture 0.5×10^9 CFU + 50 mg/kg.

`C[C@@H]1C[C@H]2[C@@H]3CCC4=CC(=O)C=C[C@]4(C)[C@@]3(F)[C@@H](O)C[C@]2(C)[C@@]1(O)C(=O)CO` [Positive control group, dexamethasone]: the “CXCL-1 Concentration” value in the test with CXCL-1 (setting [3]) turned out to be 122 ± 12.4 pg/mL. Besides, the “CXCL-1 inhibition rate (%) based on induced group” value in the test on CXCL-1 (same dosing) is listed as “(39%)”. Besides, in the test on IL-17A (setting [3]), the “IL-17A Concentration” value stood at 19.7 ± 6.3 pg/mL. The “IL-17A inhibition rate (%) based on induced group” value in the test on IL-17A (same dosing) was “(41%)”. The “TNF-α Concentration” value in the test with TNF-α (setting [3]) is 64.5 ± 7.7 pg/mL. The “TNF-α inhibition rate (%) based on induced group” value in the test with TNF-α (same dosing) is “(46%)”. Also, the “Ratio of number of neutrophils to total number of BAL cells (400X)” value in the test on neutrophils (setting [4]) is 35.5 ± 6.1. For the same molecule, in the test with neutrophils (same dosing, based on induced group), the “Inhibition rate (based on induced group), neutrophil ratio” value stood at 50%. Also, the “Total number of BAL cells (×10^4 cells/ml)” value in test [1] (setting [4]) is listed as 71.2 ± 8.3 ×10^4 cells/ml. In addition, the “Inhibition rate (based on induced group), total BAL cells” value in test [1] (same dosing as total BAL cells, based on induced group) worked out at 54%. For the same molecule, the “SDMA level (μg/mL) in serum” value in test [2] (setting [3]) came to 10.1 ± 1.9 µg/mL. Further, the “Inhibition rate (based on induced group), SDMA” value in test [2] (serum, same dosing) is 41%.
